# Marks after values point to notes of the source that are not given here.
# How the values were obtained:
# Format in all cases: in vivo
# Kunming mice [1] = assay: Influence on hypnosis effect with pentobarbital sodium doses below the threshold (25 mg/kg i.p.); conditions: pentobarbital sodium 25 mg/kg i.p. 60 min later, sleep observed in 30 min, n = 10
# In short: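 Kunming mice (10 per group, half female) given single oral doses of 25, 50 or 100 mg/kg in 0.5% CMC-Na; 60 min later pentobarbital sodium 25 mg/kg i.p. Sleep (righting reflex lost >1 min) scored within 30 min as percentage asleep, χ2 test.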
# Kunming mice [2] = assay: Influence on autonomic activity of normal mice (ZIL-2 mice autonomic activity meter, counts within 10 min); conditions: intragastric, x ± s; for Times of activities in 1 h after drug administration/10 min: 1 h after administration; for Times of activities in 2 h after drug administration/10 min: 2 h after administration; for Times of activities in 24 h after drug administration/10 min: 24 h after administration
# In short: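 Kunming mice (10 per group, half each sex) were dosed at 25, 50 or 100 mg/kg in 0.5% CMC-Na. Spontaneous activity counts over 10 min were recorded at 1 h, 2 h and 24 h post-dose. Groups were compared by ANOVA with Dunnett's test after Levene's check.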
# Kunming mice [3] = assay: Influence on hypnosis effect with pentobarbital sodium doses at the threshold (50 mg/kg i.p.); conditions: pentobarbital sodium 50 mg/kg i.p. 60 min later, x ± s, n = 10
# In short: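 Kunming mice (10/group, half each sex) received compound in 0.5% CMC-Na intragastrically at 25, 50 or 100 mg/kg; 60 min later given 0.3% sodium pentobarbital 50 mg/kg i.p. Sleep latency and duration recorded by loss of righting reflex over 1 min; ANOVA and χ2 for sleep incidence.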
# [4] = test drug 25 mg/kg intragastric single dose
# [5] = test drug 50 mg/kg intragastric single dose
# [6] = test drug 100 mg/kg intragastric single dose
# [7] = 25 mg/kg intragastric single dose
# [8] = 50 mg/kg intragastric single dose
# [9] = 100 mg/kg intragastric single dose
SMILES,Number of sleeping animals (Kunming mice [1]; [4]),rate of sleeping (%) (Kunming mice [1]; [4]),Number of sleeping animals (Kunming mice [1]; [5]),rate of sleeping (%) (Kunming mice [1]; [5]),Number of sleeping animals (Kunming mice [1]; [6]),rate of sleeping (%) (Kunming mice [1]; [6]),duration of sleep (Kunming mice [3]; [7]) [min],time to sleep (Kunming mice [3]; [7]) [min],duration of sleep (Kunming mice [3]; [8]) [min],time to sleep (Kunming mice [3]; [8]) [min],duration of sleep (Kunming mice [3]; [9]) [min],time to sleep (Kunming mice [3]; [9]) [min],"Times of activities in 1 h after drug administration/10 min (Kunming mice [2]; 25 mg/kg, n = 10)","Times of activities in 2 h after drug administration/10 min (Kunming mice [2]; 25 mg/kg, n = 10)","Times of activities in 24 h after drug administration/10 min (Kunming mice [2]; 25 mg/kg, n = 10)","Times of activities in 1 h after drug administration/10 min (Kunming mice [2]; 50 mg/kg, n = 10)","Times of activities in 2 h after drug administration/10 min (Kunming mice [2]; 50 mg/kg, n = 10)","Times of activities in 24 h after drug administration/10 min (Kunming mice [2]; 50 mg/kg, n = 10)","Times of activities in 1 h after drug administration/10 min (Kunming mice [2]; 100 mg/kg, n = 10)","Times of activities in 2 h after drug administration/10 min (Kunming mice [2]; 100 mg/kg, n = 10)",other results
COc1cc(OC)c2c(=O)cc(-c3ccc(OC)c(OC)c3)oc2c1 [Example 36],3,30%,4,40* %,6,60** %,38.32 ± 20.03,4.21 ± 1.65,61.41 ± 26.54,3.77 ± 1.12,72.03 ± 21.92,3.09 ± 1.25,–,–,–,–,–,–,–,–,"Times of activities in 1 h after drug administration/10 min (Kunming mice [2]; 25 mg/kg, n = 10, 25 mg/kg): 321.4 ± 53.4 /10 min; Times of activities in 2 h after drug administration/10 min (Kunming mice [2]; 25 mg/kg, n = 10, 25 mg/kg): 310.8 ± 51.5 /10 min; Times of activities in 24 h after drug administration/10 min (Kunming mice [2]; 25 mg/kg, n = 10, 25 mg/kg): 300.2 ± 79.6 /10 min; Times of activities in 1 h after drug administration/10 min (Kunming mice [2]; 50 mg/kg, n = 10, 50 mg/kg): 289.9 ± 44.8 /10 min; Times of activities in 2 h after drug administration/10 min (Kunming mice [2]; 50 mg/kg, n = 10, 50 mg/kg): 258.2 ± 43.6 /10 min; Times of activities in 24 h after drug administration/10 min (Kunming mice [2]; 50 mg/kg, n = 10, 50 mg/kg): 311.5 ± 98.3 /10 min; Times of activities in 1 h after drug administration/10 min (Kunming mice [2]; 100 mg/kg, n = 10, 100 mg/kg): 288.3 ± 50.4 /10 min; Times of activities in 2 h after drug administration/10 min (Kunming mice [2]; 100 mg/kg, n = 10, 100 mg/kg): 235.8 ± 49.8 /10 min; Times of activities in 24 h after drug administration/10 min (Kunming mice [2]; 100 mg/kg, n = 10, 100 mg/kg): 322.6 ± 76.8 /10 min"
"COc1ccc(C2CC(=O)c3cc(OC)c(OC)c(OC)c3O2)cc1OC (stereo not drawn) [Example 45, 6,7,8,3′,4′-penta methoxyl-flavanone]",5,50** %,6,60** %,10,100*** %,59.67 ± 19.87,4.19 ± 1.78,66.42 ± 28.90,3.26 ± 1.24,90.03 ± 23.72,2.17 ± 1.14,235.6 ± 44.5 /10 min,223.2 ± 41.4 /10 min,299.2 ± 61.3 /10 min,136.6 ± 40.5 /10 min,123.3 ± 47.6 /10 min,291.5 ± 60.4 /10 min,112.5 ± 35.4 /10 min,105.6 ± 48.5 /10 min,"Times of activities in 24 h after drug administration/10 min (Kunming mice [2]; 100 mg/kg, n = 10): 288.8 ± 69.5 /10 min"
CC=Cc1cc(I)cc2c1OC(c1cccc(C(=O)O)c1)CC2=O (stereo not drawn) [Example 60],5,50** %,6,60** %,9,90*** %,46.64 ± 22.53,4.13 ± 1.59,58.37 ± 18.85,3.62 ± 1.74,73.03 ± 19.21,2.32 ± 1.17,243.8 ± 73.8 /10 min,238.9 ± 78.3 /10 min,340.4 ± 76.8 /10 min,143.3 ± 64.7 /10 min,131.8 ± 62.3 /10 min,327.6 ± 75.3 /10 min,116.9 ± 33.8 /10 min,109.9 ± 39.2 /10 min,"Times of activities in 24 h after drug administration/10 min (Kunming mice [2]; 100 mg/kg, n = 10): 293.4 ± 84.9 /10 min"
"COc1cc(OC)c2c(=O)cc(-c3ccc(OC)c(OC)c3)oc2c1 [Example 7, 5,7,3′,4′-tetramethoxyl-flavone]",5,50** %,6,60** %,9,90*** %,61.21 ± 22.82,3.25 ± 1.93,79.27 ± 21.17,3.03 ± 1.41,87.43 ± 21.56,2.32 ± 1.21,–,–,–,–,–,–,–,–,"Times of activities in 1 h after drug administration/10 min (Kunming mice [2]; 25 mg/kg, n = 10, 25 mg/kg): 248.5 ± 55.1 /10 min; Times of activities in 2 h after drug administration/10 min (Kunming mice [2]; 25 mg/kg, n = 10, 25 mg/kg): 234.1 ± 45.8 /10 min; Times of activities in 24 h after drug administration/10 min (Kunming mice [2]; 25 mg/kg, n = 10, 25 mg/kg): 303.4 ± 75.8 /10 min; Times of activities in 1 h after drug administration/10 min (Kunming mice [2]; 50 mg/kg, n = 10, 50 mg/kg): 184.7 ± 52.6 /10 min; Times of activities in 2 h after drug administration/10 min (Kunming mice [2]; 50 mg/kg, n = 10, 50 mg/kg): 164.4 ± 45.8 /10 min; Times of activities in 24 h after drug administration/10 min (Kunming mice [2]; 50 mg/kg, n = 10, 50 mg/kg): 318.5 ± 83.6 /10 min; Times of activities in 1 h after drug administration/10 min (Kunming mice [2]; 100 mg/kg, n = 10, 100 mg/kg): 125.2 ± 44.5 /10 min; Times of activities in 2 h after drug administration/10 min (Kunming mice [2]; 100 mg/kg, n = 10, 100 mg/kg): 122.2 ± 48.6 /10 min; Times of activities in 24 h after drug administration/10 min (Kunming mice [2]; 100 mg/kg, n = 10, 100 mg/kg): 329.8 ± 53.2 /10 min"
CC=Cc1cc(Cc2ccccc2)c2c(=O)cc(-c3cc(C#N)c([N+](=O)[O-])c(Cc4ccccc4)c3)oc2c1 [Example 25],4,40* %,7,70** %,7,70** %,41.02 ± 18.97,4.41 ± 1.67,62.87 ± 28.45,3.84 ± 1.31,70.23 ± 23.65,3.05 ± 1.20,286.3 ± 48.9 /10 min,279.9 ± 41.7 /10 min,295.2 ± 82.3 /10 min,185.3 ± 51.1 /10 min,190.2 ± 56.9 /10 min,296.3 ± 91.1 /10 min,135.6 ± 39.4 /10 min,136.8 ± 47.9 /10 min,"Times of activities in 24 h after drug administration/10 min (Kunming mice [2]; 100 mg/kg, n = 10): 281.6 ± 93.7 /10 min"
CC=Cc1cc(C(=O)O)c2c(=O)cc(-c3cc(C#N)c(F)c(C(=O)O)c3)oc2c1 [Example 22],6,60** %,7,70** %,9,90*** %,30.12 ± 20.60,4.79 ± 2.43,37.78 ± 14.02,4.68 ± 1.59,52.57 ± 20.74,3.88 ± 1.18,320.3 ± 54.3 /10 min,291.3 ± 42.0 /10 min,301.3 ± 76.6 /10 min,299.4 ± 42.7 /10 min,255.3 ± 41.3 /10 min,302.6 ± 91.8 /10 min,281.5 ± 48.7 /10 min,225.6 ± 45.3 /10 min,"Times of activities in 24 h after drug administration/10 min (Kunming mice [2]; 100 mg/kg, n = 10): 315.4 ± 78.2 /10 min"
